Laboratory results: patent US20220033355A1, “CRYSTAL FORM A OF 2-(2, 5-DIOXOPYRROLIDIN-1YL) ETHYL METHYL FUMARATE, PREPARATION METHOD THEREFOR AND USE THEREOF” (SHENZHEN RENTAI PHARMATECH LTD., priority 2019, published 2022)
Counter-ions that a name gives are not always drawn.

Columns and labels:
Format in all cases: physicochemical
[1] = High-humidity stability 2 of the crystal form (XRPD comparison); conditions: 75% RH, 40° C.
Description: (§1) Method: Cu target Ka, voltage: 40 KV, current: 40 mA, test angle: 3-45°, scanning step: 0.02, exposure time: 0.2S, slit width of light pipe: 2 mm, Dtex detector.
(4) High-humidity stability 2: the test sample is placed in an environment having a humidity of 75% RH and a temperature of 40° C. for 5 days and 10 days, respectively, to test the stability of the crystal form.
(§2) (4) High-humidity stability 2: by referring to the same method of high-humidity stability test 2 for crystal A, the test sample is placed in an environment having a humidity of 75% RH and a temperature of 40° C. for 5 days to test the stability of the crystal form, which are compared with XRPD pattern of the crystal form I on day 0.

[2] = High-humidity stability 1 of the crystal form (XRPD comparison); conditions: 92.5% RH, 25° C.
Description: as §1
(3) High-humidity stability 1: the test sample is placed in an environment having a humidity of 92.5% RH and a temperature of 25° C. for 5 days and 10 days, respectively, to test the stability of the crystal form.
as §2, with “(3)” for “(4)”, “1:” for “2:”, “1” for “2”, “92.5%” for “75%”, “25°” for “40°”

[3] = High-temperature stability of the crystal form (XRPD comparison); conditions: 60° C.
Description: as §1
(2) High-temperature stability: the test sample is placed at a temperature of 60° C. for 5 days and 10 days, respectively, to test the stability of the crystal form.
(2) High-temperature stability: by referring to the same method of high-temperature stability test for crystal A, the test sample is placed at a temperature of 60° C. for 5 days to test the stability of the crystal form, which is compared with XRPD pattern of the crystal form I on day 0.

[4] = Light stability of the crystal form (XRPD comparison); conditions: 25° C., 4500 Lux
Description: as §1
(1) Light stability: the test sample is placed in an environment having a temperature of 25° C. and a light condition of 4500 Lux for 5 days and 10 days, respectively, to test the stability of the crystal form.
(1) Light stability: by referring to the same method of light stability test for crystal A, the test sample is placed in an environment having a temperature of 25° C. and a light condition of 4500 Lux for 5 days to test the stability of the crystal form, which is compared with XRPD pattern of the crystal form I on day 0.

[5] = Dynamic vapor sorption (DVS) hygroscopicity study; conditions: 25° C., RH stepped up from RH 0 to RH 90% at RH 10% per step, 10 min per step, when RH 90% is completed
Description: Model: DVS intrinsic (SMS, British); Method: 25° C., relative humidity is stepped up at a rate of 10%, the judgment standard is change in moisture content is <0.02% over a 10-minute period. Dynamic vapor sorption (DVS) experiment are performed for the crystal form I of Example 1 and the crystal form A prepared in Example 2 to obtain DVS curves under the following conditions: the temperature is 25° C., the relative humidity (RH) is stepped up from RH 0 to RH 90% at a rate of RH 10% per step, with 10 min for each step to reach equilibrium.

[6] = 5 days, XRPD compared with day 0

SMILES	high-humidity stability 2 of the crystal form ([1]; 5 days and 10 days, XRPD)	high-humidity stability 1 of the crystal form ([2]; 5 days and 10 days, XRPD)	high-temperature stability of the crystal form ([3]; 5 days and 10 days, XRPD)	light stability of the crystal form ([4]; 5 days and 10 days, XRPD)	high-humidity stability 2 of the crystal form [1, 6]	high-humidity stability 1 of the crystal form [2, 6]	weight increase due to moisture absorption [5] [%]	high-temperature stability of the crystal form [3, 6]	light stability of the crystal form [4, 6]
COC(=O)/C=C/C(=O)OCCN1C(=O)CCC1=O [crystal form A, 2-(2,5-dioxopyrrolidin-1yl)ethyl methyl fumarate]	good high-humidity stability	good high-humidity stability	good high-temperature stability	good light stability					
COC(=O)/C=C/C(=O)OCCN1C(=O)CCC1=O [crystal form I, 2-(2,5-dioxopyrrolidin-1yl)ethyl methyl fumarate]					unstable under high humidity and easily transforms into crystal form A	unstable under high humidity and easily transforms into crystal form A	0.642	unstable under high temperatures and easily transforms into crystal form A	unstable under lights and easily transforms into crystal form A
